The subject of this test is HCV replicon RNA (GenBank Accession No. AJ242654). As to the kind of experiment: HCV Replicon Assay (replicon RNA reduction and/or Fluc reporter signal). Format: cell-based, Hepatitis C virus. The following applies: Hepatitis C virus, 72 h, replicon-containing cells cultured with test compound for up to 3 days. From the text: The lack of reliable and readily accessible cell-culture and small animal models permissive for HCV replication has limited the development of new anti-HCV agents. Self-replicating subgenomic HCV systems, termed HCV replicons, have been described and have been widely used to assess the efficacy of anti-HCV inhibitors (see Blight K J, et al., 2000, Efficient initiation of HCV RNA replication in cell culture. Science 290:1972-1974; Blight K J, et al., 2002, Highly permissive cell lines for subgenomic and genomic hepatitis C virus RNA replication. J Virol 76:13001-13014; Ikeda M, et al., 2002. Selectable subgenomic and genome-length dicistronic RNAs derived from an infectious molecular clone of the HCV-N strain of hepatitis C virus replicate efficiently in cultured Huh7 cells. J Virol 76:2997-3006; Lohmann V, et al., 1999, Replication of subgenomic hepatitis C virus RNAs in a hepatoma cell line. Science 285:110-113; Pietschmann T, et al., 2002, Persistent and transient replication of full-length hepatitis C virus genomes in cell culture. J Virol 76:4008-4021; and, Pietschmann T, et al., 2001, Characterization of cell lines carrying self-replicating hepatitis C virus RNAs. J Virol 75:1252-1264).
As described in U.S. Pat. No. 6,630,343, HCV inhibitors are analyzed in the bicistronic replicon by quantitating replicon RNA (GenBank Accession No. AJ242654) reduction and/or the Fluc reporter signal. Replicon-containing cells may be cultured with a test compound of the present invention for up to 3 days. Interferon (IFN) is used as a positive control. In general, the replicon IC50 values shown in Table 1 represent IC50 values determined by replicon RNA reduction.
(A replicon is a self-replicating genome or part of one, used to study replication in cells.)

Usually IC50 stands for the concentration that inhibits the measured activity by half. A high value points to weaker potency in that assay.

With `CCc1cnc2c(c1)c(C(N)=O)c(-c1ccc(S(=O)(=O)NC(C)(C)C)cn1)n2C1CCC1` [Cpd 382, 2-[5-(tert-butylsulfamoyl)pyridin-2-yl]-1-cyclobutyl-5-ethyl-1H-pyrrolo[2,3-b]pyridine-3-carboxamide], the IC50 lay within 500 to 2000 nM.

`CCc1cnc2c(c1)c(C#N)c(-c1ccc(S(=O)(=O)N[C@H](C)C(F)(F)F)cn1)n2C1CCCC1` [Cpd 251, 6-(3-cyano-1-cyclopentyl-5-ethyl-1H-pyrrolo[2,3-b]pyridin-2-yl)-N-[(2R)-1,1,1-trifluoropropan-2-yl]pyridine-3-sulfonamide] gave an IC50 of less than 500 nM.

Consider `Cc1cnc(-n2c(-c3ccc(S(=O)(=O)N[C@@H](C)C(F)(F)F)cn3)c(C#N)c3cc(C(F)(F)F)cnc32)cn1` [Cpd 354, 6-[3-cyano-1-(5-methylpyrazin-2-yl)-5-(trifluoromethyl)-1H-pyrrolo[2,3-b]pyridin-2-yl]-N-[(2S)-1,1,1-trifluoropropan-2-yl]pyridine-3-sulfonamide], for which the IC50 was less than 500 nM.

With `Cc1ccc2c(C#N)c(-c3ccc(S(=O)(=O)N[C@H](C)C(F)(F)F)cc3)n(C3CCC3)c2n1` [Cpd 91, 4-(3-cyano-1-cyclobutyl-6-methyl-1H-pyrrolo[2,3-b]pyridin-2-yl)-N-[(2R)-1,1,1-trifluoropropan-2-yl]benzenesulfonamide], the IC50 was less than 500 nM.

The molecule `CCc1cnc2c(c1)c(C#N)c(-c1ccc(S(=O)(=O)NC3CC3)cn1)n2C1CCC1` [Cpd 193, 6-(3-cyano-1-cyclobutyl-5-ethyl-1H-pyrrolo[2,3-b]pyridin-2-yl)-N-cyclopropylpyridine-3-sulfonamide] returned an IC50 of less than 500 nM.

Molecule `CCc1cnc2c(c1)c(C#N)c(-c1ccc(S(=O)(=O)N[C@H](C)C(F)(F)F)cn1)n2C1CCC1` [Cpd 158, 6-(3-cyano-1-cyclobutyl-5-ethyl-1H-pyrrolo[2,3-b]pyridin-2-yl)-N-[(2R)-1,1,1-trifluoropropan-2-yl]pyridine-3-sulfonamide] registered an IC50 of less than 500 nM.

With `CC(C)(NS(=O)(=O)c1ccc(-c2c(C#N)c3cc(Cl)cnc3n2C2CCC2)cc1)C(F)(F)F` [Cpd 282, 4-(5-chloro-3-cyano-1-cyclobutyl-1H-pyrrolo[2,3-b]pyridin-2-yl)-N-(1,1,1-trifluoro-2-methylpropan-2-yl)benzenesulfonamide], the concentration for half-maximal inhibition (IC50) was less than 500 nM.

In turn, `CCc1cnc2c(c1)c(C(N)=O)c(-c1ccc(S(=O)(=O)NC3(C(F)(F)F)CC3)cn1)n2C1CCC1` [Cpd 380, 1-cyclobutyl-5-ethyl-2-(5-{[1-(trifluoromethyl)cyclopropyl]sulfamoyl}pyridin-2-yl)-1H-pyrrolo[2,3-b]pyridine-3-carboxamide] returned an IC50 of less than 500 nM.

`C[C@H](NS(=O)(=O)c1ccc(-c2c(C#N)c3cc(OC(F)F)cnc3n2C2CCC2)nc1)C1CC1` [Cpd 200, 6-[3-cyano-1-cyclobutyl-5-(difluoromethoxy)-1H-pyrrolo[2,3-b]pyridin-2-yl]-N-[(1S)-1-cyclopropylethyl]pyridine-3-sulfonamide]: the concentration for half-maximal inhibition (IC50) lay in the range of 500 to 2000 nM.

In turn, `CNc1cnc2c(c1)c(C#N)c(-c1ccc(S(=O)(=O)N[C@@H](C)C(F)(F)F)cn1)n2C1CCC1` [Cpd 394, 6-[3-cyano-1-cyclobutyl-5-(methylamino)-1H-pyrrolo[2,3-b]pyridin-2-yl]-N-[(2S)-1,1,1-trifluoropropan-2-yl]pyridine-3-sulfonamide] gave an IC50 of less than 500 nM.

In the case of `CC(C)(C)S(=O)(=O)Nc1ccc(-c2c(C(N)=O)c3cc(C(F)(F)F)cnc3n2C2CCCCC2)cc1` [Cpd 445, 2-{4-[(tert-butylsulfonyl)amino]phenyl}-1-cyclohexyl-5-(trifluoromethyl)-1H-pyrrolo[2,3-b]pyridine-3-carboxamide], the IC50 was less than 500 nM.

For `C[C@@H](NS(=O)(=O)c1cnc(-c2c(C#N)c3cc(C4CC4)cnc3n2C2CCC2)nc1)C(F)(F)F` [Cpd 120, 2-(3-cyano-1-cyclobutyl-5-cyclopropyl-1H-pyrrolo[2,3-b]pyridin-2-yl)-N-[(2R)-1,1,1-trifluoropropan-2-yl]pyrimidine-5-sulfonamide], the IC50 was less than 500 nM.

In turn, `CC(C)(NS(=O)(=O)c1ccc(-c2c(C#N)c3cc(C(F)(F)F)cnc3n2C2CC2)cc1)C(F)(F)F` [Cpd 361, 4-[3-cyano-1-cyclopropyl-5-(trifluoromethyl)-1H-pyrrolo[2,3-b]pyridin-2-yl]-N-(1,1,1-trifluoro-2-methylpropan-2-yl)benzenesulfonamide] registered an IC50 of 2000 to 5000 nM.

`N#Cc1c(-c2ccc(S(=O)(=O)NC3(C(F)(F)F)CC3)cn2)n(C2CCC2)c2ncc(C(F)F)cc12` [Cpd 457, 6-[3-cyano-1-cyclobutyl-5-(difluoromethyl)-1H-pyrrolo[2,3-b]pyridin-2-yl]-N-[1-(trifluoromethyl)cyclopropyl]pyridine-3-sulfonamide] returned an IC50 of less than 500 nM.

As for `CCc1cnc2c(c1)c(C#N)c(-c1ncc(S(=O)(=O)N[C@@H](C)C(F)(F)F)cn1)n2C1CCC1` [Cpd 159, 2-(3-cyano-1-cyclobutyl-5-ethyl-1H-pyrrolo[2,3-b]pyridin-2-yl)-N-[(2S)-1,1,1-trifluoropropan-2-yl]pyrimidine-5-sulfonamide], the IC50 was less than 500 nM.

Take `N#Cc1c(-c2ccc(S(=O)(=O)NC3(C(F)(F)F)CC3)cc2)n(C2CCC2)c2ncc(C(F)(F)F)cc12` [Cpd 397, 4-[3-cyano-1-cyclobutyl-5-(trifluoromethyl)-1H-pyrrolo[2,3-b]pyridin-2-yl]-N-[1-(trifluoromethyl)cyclopropyl]benzenesulfonamide]: the IC50 is less than 500 nM.

As for `CSc1cnc2c(c1)c(C(=O)O)c(-c1ccc(S(=O)(=O)NC3(C(F)(F)F)CC3)cc1)n2C1CCC1` [Cpd 390, 1-cyclobutyl-5-(methylsulfanyl)-2-(4-{[1-(trifluoromethyl)cyclopropyl]sulfamoyl}phenyl)-1H-pyrrolo[2,3-b]pyridine-3-carboxylic acid], the IC50 was in the range of 500 to 2000 nM.

In turn, `CCc1cnc2c(c1)c(C#N)c(-c1ncc(S(=O)(=O)NC3(C)CC3)cn1)n2C1CCC1` [Cpd 189, 2-(3-cyano-1-cyclobutyl-5-ethyl-1H-pyrrolo[2,3-b]pyridin-2-yl)-N-(1-methylcyclopropyl)pyrimidine-5-sulfonamide] displayed an IC50 of less than 500 nM.

For the molecule `COc1ncc2c(C#N)c(-c3ccc(S(=O)(=O)N[C@@H](C)C(F)(F)F)cn3)n(C3CCC3)c2n1` [Cpd 38, 6-(5-cyano-7-cyclobutyl-2-methoxy-7H-pyrrolo[2,3-d]pyrimidin-6-yl)-N-[(2S)-1,1,1-trifluoropropan-2-yl]pyridine-3-sulfonamide], the IC50 was less than 500 nM.

In the case of `C[C@H](NS(=O)(=O)c1ccc(-c2cc3cc(C(F)(F)F)cnc3n2-c2cnccn2)nc1)C(F)(F)F` [Cpd 315, 6-[1-(pyrazin-2-yl)-5-(trifluoromethyl)-1H-pyrrolo[2,3-b]pyridin-2-yl]-N-[(2S)-1,1,1-trifluoropropan-2-yl]pyridine-3-sulfonamide], the IC50 is less than 500 nM.

With `N#Cc1c(-c2ccc(NS(=O)(=O)C3CC3)cc2)n(C2CCC2)c2ncc(C(F)(F)F)cc12` [Cpd 246, N-{4-[3-cyano-1-cyclobutyl-5-(trifluoromethyl)-1H-pyrrolo[2,3-b]pyridin-2-yl]phenyl}cyclopropanesulfonamide], the IC50 was in the range of 500 to 2000 nM.

Molecule `COc1ncc2c(C#N)c(-c3ccc(S(=O)(=O)N[C@H](C)C(F)(F)F)cn3)n(C3CCC3)c2n1` [Cpd 39, 6-(5-cyano-7-cyclobutyl-2-methoxy-7H-pyrrolo[2,3-d]pyrimidin-6-yl)-N-[(2R)-1,1,1-trifluoropropan-2-yl]pyridine-3-sulfonamide] yielded an IC50 of 2000 to 5000 nM.

For `C[C@H](NS(=O)(=O)c1ccc(-c2c(C#N)c3cc(S(C)(=O)=O)cnc3n2C2CCC2)nc1)C(F)(F)F` [Cpd 370, 6-[3-cyano-1-cyclobutyl-5-(methylsulfonyl)-1H-pyrrolo[2,3-b]pyridin-2-yl]-N-[(2S)-1,1,1-trifluoropropan-2-yl]pyridine-3-sulfonamide], the IC50 is less than 500 nM.

Molecule `CC1(NS(=O)(=O)c2ccc(-c3c(C#N)c4cc(C5CC5)cnc4n3C3CCCC3)nc2)CC1` [Cpd 253, 6-(3-cyano-1-cyclopentyl-5-cyclopropyl-1H-pyrrolo[2,3-b]pyridin-2-yl)-N-(1-methylcyclopropyl)pyridine-3-sulfonamide] returned a half-inhibitory concentration (IC50) of 500 to 2000 nM.

In the case of `CCc1cnc2c(c1)c(C#N)c(-c1ccc(S(=O)(=O)NC3(C)CC3)cn1)n2C1CCC1` [Cpd 188, 6-(3-cyano-1-cyclobutyl-5-ethyl-1H-pyrrolo[2,3-b]pyridin-2-yl)-N-(1-methylcyclopropyl)pyridine-3-sulfonamide], the IC50 is less than 500 nM.

As to `Cc1ccc2c(n1)c(C#N)c(-c1ccc(S(=O)(=O)N[C@@H](C)C(F)(F)F)cn1)n2C1CCCC1` [Cpd 222, 6-(3-cyano-1-cyclopentyl-5-methyl-1H-pyrrolo[3,2-b]pyridin-2-yl)-N-[(2S)-1,1,1-trifluoropropan-2-yl]pyridine-3-sulfonamide], the 50% inhibitory concentration (IC50) was less than 500 nM.

The values above are taken from patent publication US9593108B2, “Compounds and methods for antiviral treatment” (PTC Therapeutics, Inc., priority 2009, dated 2017).
